Source: patent publication US12522590B2, “Brefeldin a derivatives, preparation method and use thereof” (OCEAN UNIVERSITY OF CHINA, priority 2019, dated 2026)
Values after ≈ are worked out from the molar mass of the structure shown. Read-outs that look alike come from different tables or passages of the source.

Legend:
[1] = Pharmacokinetic evaluation (plasma BFA by LC/MS/MS); type: in vivo, SD rats; details: iv
Method: SD rats were weighed after an overnight fasting of 15 hours and randomly grouped according to weights. The appropriate amount of the compound was accurately weighed, and a final volume of 5% DMSO, 10% Solutol, and 85% Saline was added and vortexed or sonicated to make a thorough mixing to provide a 4 mg/mL solution for intravenous administration (iv.). Venous blood was taken at the time points of 0, 0.083 (iv. group only), 0.25, 0.5, 1.0, 2.0, 5.0, 7.0 and 24 h, via jugular vein or other suitable means, with approximately 0.20 mL of each sample collected, anticoagulated with sodium heparin (with 6.25 μL of 200 mM DDVP/tube added), and placed on ice after collection. The plasma was separated by centrifugation within 2 hours (centrifugal force 6800 g, 6 min, 2-8° C.). The collected plasma samples were stored in a −70° C. refrigerator before analysis, and the remaining plasma samples after analysis were kept stored at −20° C. or −70° C. until LC/MS/MS analysis was performed. The accuracy of QC samples was evaluated while analyzing the samples, and more than 66% of the QC samples were required to have an accuracy between 80-120%. When plasma drug concentration-time curves were plotted, BLQ were recorded as 0. For the calculation of pharmacokinetic parameters, the concentration before dosing was counted as 0; BLQ before Cmax (including “No peak”) was counted as 0; BLQ after Cmax (including “No peak”) was not included in the calculation. Pharmacokinetic parameters such as AUC(0-t), T1/2, Cmax, Tmax and MRT were calculated according to the blood concentration data of BFA at different time points using WinNonlin.

[2] = tested on: pancreatic cancer cells PANC-1; assay: Cell proliferation assay (CCK-8); type: cell-based, human; details: PANC-1, 72 h
Text: (§1) CCK-8 method: The CCK-8 method is a highly sensitive, non-radioactive colorimetric assay for the determination of the number of viable cells in cell proliferation or cytotoxicity assays. The orange formazan dye produced by the bioreduction of CCK-8 by intracellular dehydrogenase is soluble in the cell culture medium, and the amount of formazan dye produced is proportional to the number of living cells. The kit used in this method is the tetrazolium salt-WST-8 (2-(2-methoxy-4-nitrophenyl)-3-(4-nitrophenyl)-5-(2,4-disulfophenyl)-2H-tetrazolium monosodium salt) developed by Dojindo Chemical Research Institute (Dojindo), which is capable of being reduced to a water-soluble formazan dye in the presence of the electronic carrier 1-Methoxy PMS.
(§2) Human cervical cancer cells Hela, pancreatic cancer cells PANC-1, esophageal cancer cells Eca-109, human leukemia cells K562, human lung cancer cells A549, human liver cancer cells HepG2, human gastric cancer cells MKN-45, human breast cancer cells MCF7 were cultured in DMEM medium containing 10% FBS (fetal bovine serum), 100 U/mL penicillin and 100 μg/ml streptomycin. Hepatocellular carcinoma cells Bel-7402 were cultured in RPMI-1640 medium containing 10% FBS (fetal bovine serum), 100 U/ml penicillin and 100 μg/ml streptomycin. All cells were placed in a cell culture incubator at 37° C. with 5% CO2. Cells fluid was changed every 3-5 days, and after 80% cell fusion, trypsin digestion and passaging were performed to keep the cells in good logarithmic growth phase.
(§3) All the samples to be tested were dissolved in DMSO.
(§4) Cells in logarithmic growth phase were inoculated in 96-well plates with 5000 cells/well respectively, and after 24 h of incubation, samples were added (final concentrations as shown in the table), and biplicate wells were set up for each sample. The amount of solvent of DMSO was not higher than 2‰. After 72 h, 10 μL of CCK-8 solution was added to each well and incubated for 1.5˜3 h at 37° C. The OD value at 450 nm was measured on an plate reader. Inhibition rate (%)=(1−[(OD450 dosed well−OD450 blank well)/(OD450 control well−OD450 blank well)])×100%
(§5) The fitted IC50 values were calculated using the log (inhibitor) vs. response—Variable slop analysis method in GraphPad Prism software.

[3] = tested on: esophageal cancer cells Eca-109; assay: Cell proliferation assay (CCK-8); type: cell-based, human; details: Eca-109, 72 h
Text: as §1, §2, §3, §4, §5

Kunming breed mice = assay: Acute toxicity test, single intragastric administration; type: in vivo
Text: Objective: Observation of toxic effects of compounds after a single intragastric administration (ig.) to mice
1) Agents: Compounds disclosed herein were formulated to a suitable concentration.
2) Animals: Kunming breed mice, weight 18-22 g, male.

[4] = tested on: human liver cancer cells HepG2; assay: Cell proliferation assay (CCK-8); type: cell-based; details: HepG2, 72 h
Text: as §1, §2, §3, §4, §5

[5] = tested on: human lung cancer cells A549; assay: Cell proliferation assay (CCK-8); type: cell-based; details: A549, 72 h
Text: as §1, §2, §3, §4, §5

[6] = tested on: human breast cancer cells MCF7; assay: Cell proliferation assay (CCK-8); type: cell-based; details: MCF7, 72 h
Text: as §1, §2, §3, §4, §5

[7] = tested on: human leukemia cells K562; assay: Cell proliferation assay (CCK-8); type: cell-based; details: K562, 72 h
Text: as §1, §2, §3, §4, §5

[8] = tested on: human gastric cancer cells MKN-45; assay: Cell proliferation assay (CCK-8); type: cell-based; details: MKN-45, 72 h
Text: as §1, §2, §3, §4, §5

[9] = tested on: Human cervical cancer cells Hela; assay: Cell proliferation assay (CCK-8); type: cell-based; details: 72 h
Text: as §1, §2, §3, §4, §5

[10] = Solubility test (shake 37° C., 24 h, HPLC); type: physicochemical; details: x ± s; for solubility at 24 h: thermodynamic from solid
Method: The term “solubility” refers to the mass of solute dissolved when a solid substance reaches saturation state in 100 g solvent at a certain temperature. Solubility test refer to the following references: ZHU Shang-bin, et al. Preparation, characterization, and physicochemical properties of arbutin phospholipid complex[J]. Chinese Traditional and Herbal Drugs. 2020, 1-10.
Methods: Excess BFA and the compounds disclosed herein were added to 10 mL of three solvents, methanol, acetone and 5% DMSO+95% H2O, respectively, and shaken on a shaker at 37° C. at 100 r/min for 24 h. After 24 h, the samples were centrifuged at 15 000 r/min for 15 min to remove the undissolved compounds. The supernatant was filtered using a 0.45 μm membrane filter. The supernatant was appropriately diluted with methanol and contents of the compounds were determined by HPLC method to calculate the solubility.

[11] = SD rats, 20 mg/kg, blood concentration of BFA
[12] = Sprague-Dawley, rat, in vivo, 30 mg/kg
[13] = mice, single ig., high and low doses (BFA effective amount conversion)
[14] = aqueous with cosolvent or surfactant or cyclodextrin, 5% DMSO + 95% H2O, n = 3, read-out: Solubility, 5% DMSO + 95% H2O
[15] = organic solvent or mixture, acetone, n = 3, read-out: Solubility, Acetone
[16] = organic solvent or mixture, methanol, n = 3, read-out: Solubility, Methanol
[17] = mice, single ig., high and low doses (BFA effective amount conversion), within 72 h

Row | SMILES | IC50 ([2]; Homo sapiens) [nM] | IC50 ([3]; Homo sapiens) [nM] | Mental condition after administration (Kunming breed mice; [13]) | IC50 ([4]; Homo sapiens) [nM] | IC50 ([5]; Homo sapiens) [nM] | IC50 ([6]; Homo sapiens) [nM] | IC50 ([7]; Homo sapiens) [nM] | IC50 ([8]; Homo sapiens) [nM] | IC50 ([9]; Homo sapiens) [nM] | solubility at 24 h [10, 14] [mg/mL] | solubility at 24 h [10, 15] [mg/mL] | solubility at 24 h [10, 16] [mg/mL] | Death within 72 h (Kunming breed mice; [17]) | also measured
1 | C[C@H]1CCC/C=C/[C@@H]2C[C@H](O)C[C@H]2[C@H](O)/C=C/C(=O)O1 [BFA, Brefeldin A] | – | – | – | – | – | – | – | – | – | – | – | – | – | AUCINF [1, 11]: 4448.31 ng·h/mL; AUClast [1, 11]: 4450.24 ng·h/mL; Cmax [1, 11]: 5744.26 ng/mL; MRTINF [1, 11]: 11.4 min; T1/2 [1, 11]: 25.2 min; Tmax [1, 11]: 15 min; IC50 [2]: < 100 nM; IC50 [3]: 100 to 1000 nM; Mortality within 24 h (Kunming breed mice; mice, single ig., high dose 1000 mg/kg, within 24 h): all animals died; Animals died within 72 h (Kunming breed mice; mice, single ig., low dose 750 mg/kg, within 72 h): ⅔; IC50 [4]: 100 to 1000 nM; IC50 [5]: 100 to 1000 nM; IC50 [6]: < 100 nM; IC50 [7]: 100 to 1000 nM; IC50 [8]: 100 to 1000 nM; IC50 [9]: 100 to 1000 nM; Solubility, 5% DMSO + 95% H2O ([10]; 5% DMSO + 95% H2O, n = 3): 0.085 ± 0.03 mg/mL; Solubility, Acetone ([10]; acetone, n = 3): 3.13 ± 1.24 mg/mL (≈ 11.2 mM); Solubility, Methanol ([10]; methanol, n = 3): 3.13 ± 1.24 mg/mL (≈ 11.2 mM)
2 | C[C@H]1CCC/C=C/[C@@H]2C[C@H](OC(=O)OCc3cccnc3)C[C@H]2[C@H](O)/C=C/C(=O)O1 [Compound 1, BFA-7-(pyridine-3-ylmethyl)carbonate] | 100 to 1000 | < 100 | good mental conditions | < 100 | < 100 | 100 to 1000 | 100 to 1000 | < 100 | 100 to 1000 | 2.73 ± 0.21 | 68.7 ± 2.53 (≈ 165 mM) | 74.3 ± 2.52 (≈ 179 mM) | – | AUCINF [1, 12]: 5763.29 ng·h/mL; AUClast [1, 12]: 5766.31 ng·h/mL; Cmax [1, 12]: 7192.20 ng/mL; MRTINF [1, 12]: 11.4 min; T1/2 [1, 12]: 15 min; Tmax [1, 12]: 15 min; Death within 72 h (Kunming breed mice; mouse, in vivo): no death
3 | COc1ccc(COC(=O)O[C@@H]2C[C@H]3[C@H](O)/C=C/C(=O)O[C@@H](C)CCC/C=C/[C@@H]3C2)cn1 [Compound 6] | 100 to 1000 | 100 to 1000 | good mental conditions | 100 to 1000 | < 100 | 100 to 1000 | 100 to 1000 | < 100 | 100 to 1000 | 2.95 ± 1.61 | 70.6 ± 1.44 (≈ 158 mM) | 70.4 ± 3.35 (≈ 158 mM) | no death | –
4 | C[C@H]1CCC/C=C/[C@@H]2C[C@H](OC(=O)OCc3cnc4ccccc4c3)C[C@H]2[C@H](O)/C=C/C(=O)O1 [Compound 11, BFA-7-(quinoline-3-ylmethyl)carbonate] | < 100 | < 100 | good mental conditions | 100 to 1000 | 100 to 1000 | 100 to 1000 | 100 to 1000 | 100 to 1000 | 100 to 1000 | 2.65 ± 1.8 | 67.6 ± 2.74 (≈ 145 mM) | 69.3 ± 4.35 (≈ 149 mM) | no death | –
